Measured values: patent US11116774B2, “Modulators of toll-like receptors for the treatment of HIV” (Gilead Sciences, Inc., priority 2014, dated 2021)
Values joined by “and” are separate entries in the source; they are usually repeats but may differ in a detail not shown here. Equal values may be shown once. Read-outs that look alike come from different tables or passages of the source.

What was measured:
HIV-1BaL = experiment: Antiviral activity on in vitro HIV-1 infected PBMC cultures, Gag p24 ELISA (Example 209); assay type: cell-based; conditions: Human immunodeficiency virus 1, 144 h, PHA-stimulated human PBMC infected with HIV-1BaL, six days with IL-2, Gag p24
Experimental: Antiretroviral activity was assessed by testing the TLR7 modulating compounds (Compounds of Example 4 and Example 49) in total human PBMC cultures that were first treated with mitogen (phytohemogglutinin A) for two days prior to infection with HIV-1BaL. Infected cells were cultured in the presence of interleukin-2 and various concentrations of the TLR7 modulating compounds or the nucleoside analog HIV-1 reverse transcriptase inhibitor azidothymidine (AZT, positive control) for six days. At the end of the incubation period, cell-free culture supernatants were harvested and antiviral activity determined by measuring production of HIV-1 Gag p24 by commercially available ELISA kits.

[1] = tested on: HIV-1 expression in PBMC cultures from HIV-1 infected donors on cART; experiment: Induced HIV-1 expression in PBMC cultures from HIV-1 infected donors on cART (Example 208); assay type: cell-based, human; conditions: for fold induction at 0.01 µM / fold induction at 0.1 µM / fold induction at 0.156 µM / fold induction at 1 µM / fold induction at 2.5 µM / fold induction at 10 µM: Human immunodeficiency virus 1, PBMC; for fold induction at 0.01 µM: read-out: Fold HIV-1 Induction, Geometric Mean, 0.01 μM; for fold induction at 0.01 µM / fold induction at 0.156 µM / fold induction at 2.5 µM: donors 152-155; for fold induction at 0.1 µM: read-out: Fold HIV-1 Induction, Geometric Mean, 0.1 μM; for fold induction at 0.1 µM / fold induction at 1 µM: donors 122, 124-128; for fold induction at 0.156 µM: read-out: Fold HIV-1 Induction, Geometric Mean, 0.156 μM; for fold induction at 1 µM: read-out: Fold HIV-1 Induction, Geometric Mean, 1 μM; for fold induction at 2.5 µM: read-out: Fold HIV-1 Induction, Geometric Mean, 2.5 μM; for fold induction at 10 µM: read-out: Fold HIV-1 Induction, Geometric Mean, 10 μM, donors 124-127; for patients whose cultures showed two-fold or higher activation over the DMSO control: 4 to 5 days, with elvitegravir and efavirenz 100 nM each
Experimental: Isolated PBMCs were treated with various concentrations (0.1, 1, and 10 μM) of the TLR7 modulating compounds (compounds of Example 4 and Example 49) or dimethyl sulfoxide (DMSO) treated (vehicle control) for 4 to 5 days. The cultures were maintained in the presence of antivirals (elvitegravir and efavirenz at 100 nM each) to prevent viral spread and amplification in order to measure initial virus production (latency reversal) created by the TLR7 modulating compounds. At the end of the incubation period cell-free culture supernatants were harvested and HIV-1 RNA levels were quantified by the COBAS® AmpliPrep/COBAS® TaqMan HIV-1 Test, v2.0 (Roche).
Using the method described above in Example 208, HIV-1 expression in PBMC cultures derived from four additional HIV-1 infected donors on cART were tested in the presence of the compounds of Examples 4, 29, 120, 121, 122, 123, 124, resiquimod, and imiquimod.

[2] = tested on: CD3+CD8+ lymphocytes in PBMC cultures from healthy and HIV-1 infected donors; experiment: In vitro lymphocyte subset activation in PBMC cultures, CD69 on CD8+ lymphocytes (Example 207); assay type: cell-based, human; conditions: 24 hours; for CD69 Expression on CD3+CD8+ Lymphocytes, Mean Maximum Expression Background Subtracted: mean of donors 120-123; for CD69 Expression on CD3+CD8+ Lymphocytes, Maximum Expression (Actual %) / CD69 Expression on CD3+CD8+ Lymphocytes, Maximum Expression Background Subtracted: per donor, PBMC cultures
Experimental: (§1) Total PBMC cultures were treated with various concentrations of the identified TLR7 modulating compounds (Compounds of Example 4 and Example 49) for 24 hours. At the end of the incubation period, total PBMC were harvested and stained with antibodies conjugated to specific fluorophores to delineate human CD4 lymphocytes (CD3+CD4+CD8−) or CD8 lymphocytes (CD3+CD8+CD4-) and co-expressing the early activation marker CD69. Cells were analyzed by flow cytometry and data collected on an LSR FortessaX20 instrument (BD Biosciences).

[3] = tested on: CD3+CD4+ lymphocytes in PBMC cultures from HIV-1 infected donors; experiment: In vitro lymphocyte subset activation in PBMC cultures, CD69 on CD4+ lymphocytes (Example 207); assay type: cell-based, human; conditions: 24 hours; for CD69 Expression on CD3+CD4+ Lymphocytes, Mean Maximum Expression Background Subtracted: mean of donors 120-123; for CD69 Expression on CD3+CD4+ Lymphocytes, Maximum Expression (Actual %) / CD69 Expression on CD3+CD4+ Lymphocytes, Maximum Expression Background Subtracted: per donor, PBMC from HIV-1 infected donors
Experimental: as §1

[4] = tested on: polyfunctional proliferating CD8 T cells (CFSE low, IFNg+, TNFa+); experiment: Induction of HIV-specific polyfunctional CD8 T cells ex vivo (Example 216); assay type: cell-based, human; conditions: PBMCs from 5 HIV-infected donors, HIV peptide pools
Experimental: PBMCs from 5 HIV-infected donors (Donor IDs 178-180 and 182-183) on suppressive cART were isolated, as described previously, and stained with carboxyfluorescein succinimiyl ester (CFSE). PBMC cultures were treated with DMSO or the compound of Example 49 (GS-9620) at 0.1 or 1 uM. Cultures were incubated at 37° C. for 2 days and treated with 500 ng/ml 15-mer peptide pools derived from overlapping HIV gag, pol, nef, and env consensus peptides (JPT Peptide Technologies GmbH). Cells were incubated at 37° C. for 8 days. Cultures were split into duplicate sets and stained in dulbecco's phosphate buffered saline (DPBS) with LIVE/DEAD Fixable Aqua Dead Cell Stain (Life Technologies). The immune recall response was performed as follows. One culture set was treated with the same HIV peptide pools and the other set was treated with 500 ng/ml CMV/EBV/Flu/Tetanus (CEFT) peptides (JPT Peptide Technologies GmbH). After one hour at 37° C., cultures were treated with 0.7 μl GolgiStop (BD Biosciences) containing monensin and 1 μl GolgiPlug (BD Biosciences) containing brefeldin A. Cultures were incubated for 3 additional hours at 37° C. and stained for 15 minutes with anti-CD4-v450, anti-CD3-AlexaFlour 700, and anti CD8-APC-H7 (BD Biosciences). Cultures were fixed with IC Fixation Buffer (eBioscience) and permeabilized with Permeabilization Buffer (eBioscience). […]

[5] = at least 8 independent donors, read-out: Range EC50
[6] = mean ± SD from at least 8 independent donors, read-out: Mean EC50

Row | Compound | EC50 (HIV-1BaL; [5]) | EC50 (HIV-1BaL; [6]) | Donors with ≥2-fold HIV-1 Induction ([1]; 0.01 μM, Tables 7-11) | Donors with ≥2-fold HIV-1 Induction ([1]; 0.1 μM, Table 6) | Donors with ≥2-fold HIV-1 Induction ([1]; 0.156 μM, Tables 7-11) | Donors with ≥2-fold HIV-1 Induction ([1]; 1 μM, Table 6) | Donors with ≥2-fold HIV-1 Induction ([1]; 2.5 μM, Tables 7-11) | Donors with ≥2-fold HIV-1 Induction ([1]; 10 μM, Table 6) | fold induction at 0.01 µM ([1]; Tables 7-11) | fold induction at 0.1 µM ([1]; Table 6) | fold induction at 0.156 µM ([1]; Tables 7-11) | fold induction at 1 µM ([1]; Table 6) | fold induction at 2.5 µM ([1]; Tables 7-11) | fold induction at 10 µM ([1]; Table 6) | CD69 Expression on CD3+CD8+ Lymphocytes, Mean Maximum Expression Background Subtracted [2] | CD69 Expression on CD3+CD8+ Lymphocytes, Maximum Expression (Actual %) [2] | CD69 Expression on CD3+CD8+ Lymphocytes, Maximum Expression Background Subtracted [2] | CD69 Expression on CD3+CD4+ Lymphocytes, Mean Maximum Expression Background Subtracted [3] | CD69 Expression on CD3+CD4+ Lymphocytes, Maximum Expression (Actual %) [3] | CD69 Expression on CD3+CD4+ Lymphocytes, Maximum Expression Background Subtracted [3] | further results
1 | CCCCOc1nc(N)c2c(n1)N(Cc1ccc(CN3CCCC3)cc1)CC(=O)N2 [Example 4] | 0.0008 to 0.081 µM | 0.033 ± 0.035 µM | 4 of 4 | 4 of 6 | 4 of 4 | 3 of 6 | 4 of 4 | 3 of 4 | 4.3 | 2 | 5.3 | 1.6 | 4 | 3.9 | 32% | 60% and 44% and 35% and 32% | 36% and 30% (2×) and 33% | 22% | 57% and 41% and 26% and 24% | 19% and 21% and 25% and 24% | 
2 | CCCCOc1nc(N)c2c(n1)N(Cc1cccc(CN3CCCC3)c1)CC(=O)N2 [Example 49] | 0.004 to 0.691 µM | 0.17 ± 0.24 µM | 2 of 4 | 3 of 6 | 4 of 4 | 4 of 6 | 4 of 4 | 1 of 4 | 4 | 2.3 | 6.7 | 2.8 | 9.4 | 1.4 | 31% | 55% and 43% and 35% and 32% | 31% and 29% and 33% and 30% | 22% | 59% and 39% and 24% and 25% | 21% and 20% and 23% and 24% | increase of mean level of polyfunctional proliferating CD8 T cells compared to DMSO ([4]; 0.1 uM, p<0.05): 9.0 fold; increase of mean level of polyfunctional proliferating CD8 T cells compared to DMSO ([4]; 1 uM, p<0.005): 7.5 fold; patients whose cultures showed two-fold or higher activation over the DMSO control ([1]; 0.1 μM): 4 of 6; patients whose cultures showed two-fold or higher activation over the DMSO control ([1]; 1 μM): 3 of 6; patients whose cultures showed two-fold or higher activation over the DMSO control ([1]; 10 μM): 1 of 4
